Experiment [1] concerns the target Non-receptor tyrosine-protein kinase TYK2 (Homo sapiens, UniProt P29597). The experiment is classed as functional.
Experiment [2] concerns the target Serine/threonine-protein kinase pim-2 (Homo sapiens, UniProt Q9P1W9). The experiment is classed as functional.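 Further: value comes from a broad kinase panel profiling study in which PIM2 was one of the panel members.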
Experiment [3] has as its target Vascular endothelial growth factor receptor 3 (Homo sapiens, UniProt P35916). The experiment is classed as functional.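 Further: value from a kinome-wide profiling panel, with FLT4 as the panel member.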
Experiment [4] deals with Serine/threonine-protein kinase Nek4 (Homo sapiens, UniProt P51957). The experiment is classed as functional.
Experiment [5] has as its target MAP kinase-interacting serine/threonine-protein kinase 2 (Homo sapiens, UniProt Q9HBH9). The experiment is classed as functional.
The target of experiment [6] is Mitogen-activated protein kinase 14 (Homo sapiens, UniProt Q16539). The experiment is classed as functional.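 Further: part of a kinome-wide panel, MAPK14 entry.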
Experiment [7] concerns the target Interleukin-1 receptor-associated kinase 1 (Homo sapiens, UniProt P51617). The experiment is classed as functional.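 Further: IRAK1 tested as one member of a kinome panel.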
The target of experiment [8] is cGMP-dependent protein kinase 1 (Homo sapiens, UniProt Q13976). The experiment is classed as functional.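 Further: value from a kinome panel screen with PRKG1 as the panel member.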
For experiment [9], the target named is Casein kinase II subunit alpha (Homo sapiens, UniProt P68400). The experiment is classed as functional.
Experiment [10] deals with Tyrosine-protein kinase Lyn (Homo sapiens, UniProt P07948). The experiment is classed as functional.
In experiment [11] the target is Protein kinase C gamma type (Homo sapiens, UniProt P05129). The experiment is classed as functional.
In experiment [12] the target is Serine/threonine-protein kinase TBK1 (Homo sapiens, UniProt Q9UHD2). Description: Navigating the Kinome. Panel member name: TBK1. The experiment is classed as functional.
Experiment [13] deals with Protein kinase C iota type (Homo sapiens, UniProt P41743). The experiment is classed as functional.
Experiment [14] addresses Inhibitor of nuclear factor kappa-B kinase subunit epsilon (Homo sapiens, UniProt Q14164). Kind of experiment: Navigating the Kinome. Panel member name: IKBKE. The experiment is classed as functional.
For experiment [15], the target named is Dual specificity protein kinase CLK4 (Homo sapiens, UniProt Q9HAZ1). The experiment is classed as functional.
The target in experiment [16] is Mitogen-activated protein kinase 8 (Homo sapiens, UniProt P45983). The experiment is classed as functional.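 Further: value comes from one member of a kinome-wide kinase profiling panel.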
For experiment [17], the target named is Cyclin-dependent kinase 1 (Homo sapiens, UniProt P06493). The experiment is classed as functional.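 Further: Kinome-wide panel profiling, with the target listed as panel member CDC2.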
For another experiment, the target named is SRSF protein kinase 1 (Homo sapiens, UniProt Q96SB4). The experiment is classed as functional.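 Further: measured as one member of a kinome-wide kinase profiling panel.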
In experiment [18] the target is Mitogen-activated protein kinase kinase kinase kinase 2 (Homo sapiens, UniProt Q12851). The experiment is classed as functional.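 Further: measured as one member of a kinome-wide kinase panel, with MAP4K2 as the panel entry.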
Experiment [19] deals with T1, 1-phosphatidylinositol 4,5-bisphosphate phosphodiesterase gamma-1 (Homo sapiens, UniProt P19174).
T1 sequence (P19174 whole entry): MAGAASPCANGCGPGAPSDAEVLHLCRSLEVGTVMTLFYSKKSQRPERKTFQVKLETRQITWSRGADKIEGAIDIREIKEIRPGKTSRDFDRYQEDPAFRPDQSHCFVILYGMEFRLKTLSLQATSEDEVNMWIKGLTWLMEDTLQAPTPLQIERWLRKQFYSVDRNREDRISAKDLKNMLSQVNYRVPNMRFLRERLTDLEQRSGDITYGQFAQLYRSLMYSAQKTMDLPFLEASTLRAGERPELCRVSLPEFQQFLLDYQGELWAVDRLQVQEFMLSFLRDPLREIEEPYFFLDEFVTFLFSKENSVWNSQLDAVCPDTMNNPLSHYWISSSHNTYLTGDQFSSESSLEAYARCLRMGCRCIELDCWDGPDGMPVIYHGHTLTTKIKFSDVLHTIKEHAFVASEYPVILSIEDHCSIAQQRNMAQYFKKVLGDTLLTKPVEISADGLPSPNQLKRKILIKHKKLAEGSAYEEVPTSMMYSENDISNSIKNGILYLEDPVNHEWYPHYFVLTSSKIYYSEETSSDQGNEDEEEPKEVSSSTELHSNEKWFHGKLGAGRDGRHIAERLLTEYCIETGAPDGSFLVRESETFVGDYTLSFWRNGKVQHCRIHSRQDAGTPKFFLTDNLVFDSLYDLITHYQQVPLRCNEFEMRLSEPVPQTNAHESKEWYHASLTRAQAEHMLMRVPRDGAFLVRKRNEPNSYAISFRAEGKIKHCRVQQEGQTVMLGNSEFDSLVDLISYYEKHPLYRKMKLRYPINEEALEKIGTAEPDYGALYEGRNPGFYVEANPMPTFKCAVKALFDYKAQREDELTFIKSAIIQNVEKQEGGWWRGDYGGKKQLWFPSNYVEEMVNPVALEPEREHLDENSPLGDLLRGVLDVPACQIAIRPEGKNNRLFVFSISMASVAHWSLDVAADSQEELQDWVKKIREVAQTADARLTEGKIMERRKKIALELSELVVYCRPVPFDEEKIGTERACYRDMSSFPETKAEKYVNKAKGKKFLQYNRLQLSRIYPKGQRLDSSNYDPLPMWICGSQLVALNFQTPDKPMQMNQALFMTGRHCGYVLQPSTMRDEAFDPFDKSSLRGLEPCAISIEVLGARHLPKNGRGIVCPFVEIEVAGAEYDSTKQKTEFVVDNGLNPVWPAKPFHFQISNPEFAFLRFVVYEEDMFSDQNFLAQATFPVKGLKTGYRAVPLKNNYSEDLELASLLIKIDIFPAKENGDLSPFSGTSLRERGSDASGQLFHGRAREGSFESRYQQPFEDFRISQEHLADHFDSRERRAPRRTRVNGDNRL
Kind of experiment: Counterscreen for inhibitors of phospholipase C isozymes (PLC-B3): Fluorescence-based biochemical high throughput dose response assay to identify inhibitors of phospholipase C isozymes (PLC-gamma1). For orientation: A counterscreen serves to expose hits that act by an unwanted route or on another target.

In experiment [20] the target is T2, Zinc finger protein mex-5 (Caenorhabditis elegans, UniProt Q9XUB2).
T2 sequence (Q9XUB2 whole entry): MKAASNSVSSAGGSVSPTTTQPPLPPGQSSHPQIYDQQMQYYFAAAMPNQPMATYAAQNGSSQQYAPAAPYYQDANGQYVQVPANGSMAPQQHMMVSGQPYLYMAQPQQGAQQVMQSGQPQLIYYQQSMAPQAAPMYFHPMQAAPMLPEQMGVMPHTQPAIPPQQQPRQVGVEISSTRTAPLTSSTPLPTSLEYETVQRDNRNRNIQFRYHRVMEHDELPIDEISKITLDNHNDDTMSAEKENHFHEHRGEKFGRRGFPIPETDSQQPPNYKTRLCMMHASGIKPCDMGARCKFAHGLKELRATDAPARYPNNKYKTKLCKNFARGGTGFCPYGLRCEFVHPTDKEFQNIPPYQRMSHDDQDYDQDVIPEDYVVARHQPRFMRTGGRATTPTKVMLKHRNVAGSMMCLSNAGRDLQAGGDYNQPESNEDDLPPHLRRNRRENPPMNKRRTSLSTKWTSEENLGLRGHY
Kind of experiment: potency of MEX-5 RNA-binding blockers – biochemical, C. elegans, fluorescence polarization, dose response (AID 1960). (In general: Polarisation of emitted light reports the rotation of a fluorescent probe.)

Active and inactive are the calls of the source.

What is called Ki is the equilibrium dissociation constant of an inhibitor or competing ligand from its target. For orientation: IC50 means the concentration at which inhibition is half-maximal. By EC50 is commonly meant the concentration giving half of the maximal effect.

Chain of Mitogen-activated protein kinase 14 (Q16539 whole entry): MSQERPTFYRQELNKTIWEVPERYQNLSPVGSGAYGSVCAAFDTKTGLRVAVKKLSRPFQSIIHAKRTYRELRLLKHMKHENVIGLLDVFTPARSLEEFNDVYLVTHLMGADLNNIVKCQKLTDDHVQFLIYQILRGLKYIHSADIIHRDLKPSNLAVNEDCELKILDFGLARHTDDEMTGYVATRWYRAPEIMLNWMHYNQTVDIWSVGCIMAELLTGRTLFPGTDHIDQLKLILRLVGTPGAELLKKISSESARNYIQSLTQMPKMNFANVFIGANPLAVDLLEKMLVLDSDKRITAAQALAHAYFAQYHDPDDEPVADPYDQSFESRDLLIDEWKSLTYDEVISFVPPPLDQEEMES
Chain of Inhibitor of nuclear factor kappa-B kinase subunit epsilon (Q14164 whole entry): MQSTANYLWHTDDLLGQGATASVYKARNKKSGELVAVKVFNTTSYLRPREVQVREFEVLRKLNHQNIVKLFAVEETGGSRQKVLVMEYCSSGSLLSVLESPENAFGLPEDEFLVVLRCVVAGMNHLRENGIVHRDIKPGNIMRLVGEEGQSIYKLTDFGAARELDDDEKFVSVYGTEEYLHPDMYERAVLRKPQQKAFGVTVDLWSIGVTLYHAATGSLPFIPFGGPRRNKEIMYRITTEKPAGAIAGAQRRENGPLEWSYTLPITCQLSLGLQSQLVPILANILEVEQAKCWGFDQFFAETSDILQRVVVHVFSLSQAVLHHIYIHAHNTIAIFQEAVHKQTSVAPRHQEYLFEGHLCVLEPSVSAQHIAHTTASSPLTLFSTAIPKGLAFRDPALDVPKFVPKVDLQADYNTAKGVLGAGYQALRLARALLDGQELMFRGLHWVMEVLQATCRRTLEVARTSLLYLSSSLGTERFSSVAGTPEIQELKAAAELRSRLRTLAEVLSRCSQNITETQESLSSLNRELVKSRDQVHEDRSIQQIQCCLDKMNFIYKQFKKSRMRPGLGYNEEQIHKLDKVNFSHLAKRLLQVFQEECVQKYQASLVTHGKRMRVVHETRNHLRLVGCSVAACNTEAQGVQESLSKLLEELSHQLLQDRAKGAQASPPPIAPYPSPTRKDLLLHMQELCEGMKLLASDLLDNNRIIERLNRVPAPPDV
Chain of Cyclin-dependent kinase 1 (P06493 whole entry): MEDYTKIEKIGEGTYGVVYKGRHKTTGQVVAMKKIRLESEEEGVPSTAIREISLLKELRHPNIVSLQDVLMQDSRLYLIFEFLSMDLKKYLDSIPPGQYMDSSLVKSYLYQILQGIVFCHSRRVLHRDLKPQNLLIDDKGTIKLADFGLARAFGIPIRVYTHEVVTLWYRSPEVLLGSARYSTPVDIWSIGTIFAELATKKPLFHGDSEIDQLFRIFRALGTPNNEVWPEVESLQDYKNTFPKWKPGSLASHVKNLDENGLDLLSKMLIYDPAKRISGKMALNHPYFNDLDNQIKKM
Chain of Vascular endothelial growth factor receptor 3 (P35916 whole entry): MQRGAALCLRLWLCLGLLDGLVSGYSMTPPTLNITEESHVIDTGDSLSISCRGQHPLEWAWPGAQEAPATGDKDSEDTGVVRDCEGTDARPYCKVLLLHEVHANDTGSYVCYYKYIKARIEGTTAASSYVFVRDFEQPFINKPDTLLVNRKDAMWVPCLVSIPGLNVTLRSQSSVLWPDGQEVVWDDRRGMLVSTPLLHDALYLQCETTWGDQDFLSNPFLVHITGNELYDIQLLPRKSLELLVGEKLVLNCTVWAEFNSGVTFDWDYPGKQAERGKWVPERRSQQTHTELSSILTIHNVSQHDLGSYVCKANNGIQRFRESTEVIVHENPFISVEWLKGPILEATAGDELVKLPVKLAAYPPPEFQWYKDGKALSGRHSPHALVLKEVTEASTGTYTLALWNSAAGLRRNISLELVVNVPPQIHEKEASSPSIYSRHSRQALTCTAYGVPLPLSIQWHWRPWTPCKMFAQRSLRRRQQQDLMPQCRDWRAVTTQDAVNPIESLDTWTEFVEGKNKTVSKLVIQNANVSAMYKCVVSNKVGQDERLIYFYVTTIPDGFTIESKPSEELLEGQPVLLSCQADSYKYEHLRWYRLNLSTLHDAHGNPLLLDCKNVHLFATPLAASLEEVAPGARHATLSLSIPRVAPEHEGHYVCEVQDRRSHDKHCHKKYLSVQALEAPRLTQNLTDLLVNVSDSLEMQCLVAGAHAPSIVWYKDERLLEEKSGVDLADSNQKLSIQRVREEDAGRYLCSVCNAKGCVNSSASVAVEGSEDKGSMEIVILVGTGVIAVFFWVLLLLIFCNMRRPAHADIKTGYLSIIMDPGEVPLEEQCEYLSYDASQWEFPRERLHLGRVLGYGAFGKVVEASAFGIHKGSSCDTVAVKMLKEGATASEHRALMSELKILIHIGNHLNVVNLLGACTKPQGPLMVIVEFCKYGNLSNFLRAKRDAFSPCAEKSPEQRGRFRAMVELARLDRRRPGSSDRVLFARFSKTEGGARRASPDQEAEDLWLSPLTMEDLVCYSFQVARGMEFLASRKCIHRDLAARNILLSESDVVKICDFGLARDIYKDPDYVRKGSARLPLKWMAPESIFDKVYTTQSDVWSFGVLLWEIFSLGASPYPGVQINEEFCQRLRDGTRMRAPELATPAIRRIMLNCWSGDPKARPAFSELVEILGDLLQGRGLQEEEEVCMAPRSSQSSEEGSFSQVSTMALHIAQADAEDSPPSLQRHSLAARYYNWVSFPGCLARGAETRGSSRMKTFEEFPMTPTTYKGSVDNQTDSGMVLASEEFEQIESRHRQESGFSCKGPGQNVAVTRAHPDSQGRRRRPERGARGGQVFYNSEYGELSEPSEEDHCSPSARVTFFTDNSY
Chain of Dual specificity protein kinase CLK4 (Q9HAZ1 whole entry): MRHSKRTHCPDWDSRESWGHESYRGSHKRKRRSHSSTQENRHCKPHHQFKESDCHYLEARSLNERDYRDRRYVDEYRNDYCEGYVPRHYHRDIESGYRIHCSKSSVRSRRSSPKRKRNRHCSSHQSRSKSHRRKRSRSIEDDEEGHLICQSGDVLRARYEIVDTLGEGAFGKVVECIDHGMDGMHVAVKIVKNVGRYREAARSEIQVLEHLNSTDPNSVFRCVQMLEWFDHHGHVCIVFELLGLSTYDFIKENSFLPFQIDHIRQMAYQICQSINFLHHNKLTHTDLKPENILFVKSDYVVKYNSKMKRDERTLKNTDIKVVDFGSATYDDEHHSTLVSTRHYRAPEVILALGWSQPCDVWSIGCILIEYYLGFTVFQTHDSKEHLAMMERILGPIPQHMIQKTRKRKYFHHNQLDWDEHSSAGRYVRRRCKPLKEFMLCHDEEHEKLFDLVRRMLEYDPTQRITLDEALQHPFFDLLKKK
Chain of Serine/threonine-protein kinase pim-2 (Q9P1W9 whole entry): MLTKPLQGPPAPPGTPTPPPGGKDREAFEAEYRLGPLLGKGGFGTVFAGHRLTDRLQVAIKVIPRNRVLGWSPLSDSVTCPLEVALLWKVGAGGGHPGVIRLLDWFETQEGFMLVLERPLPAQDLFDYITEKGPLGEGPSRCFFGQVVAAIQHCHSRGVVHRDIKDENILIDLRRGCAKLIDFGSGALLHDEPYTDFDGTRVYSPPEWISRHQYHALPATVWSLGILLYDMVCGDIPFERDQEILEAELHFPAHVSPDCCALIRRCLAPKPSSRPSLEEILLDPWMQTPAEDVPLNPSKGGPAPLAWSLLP
Chain of Mitogen-activated protein kinase kinase kinase kinase 2 (Q12851 whole entry): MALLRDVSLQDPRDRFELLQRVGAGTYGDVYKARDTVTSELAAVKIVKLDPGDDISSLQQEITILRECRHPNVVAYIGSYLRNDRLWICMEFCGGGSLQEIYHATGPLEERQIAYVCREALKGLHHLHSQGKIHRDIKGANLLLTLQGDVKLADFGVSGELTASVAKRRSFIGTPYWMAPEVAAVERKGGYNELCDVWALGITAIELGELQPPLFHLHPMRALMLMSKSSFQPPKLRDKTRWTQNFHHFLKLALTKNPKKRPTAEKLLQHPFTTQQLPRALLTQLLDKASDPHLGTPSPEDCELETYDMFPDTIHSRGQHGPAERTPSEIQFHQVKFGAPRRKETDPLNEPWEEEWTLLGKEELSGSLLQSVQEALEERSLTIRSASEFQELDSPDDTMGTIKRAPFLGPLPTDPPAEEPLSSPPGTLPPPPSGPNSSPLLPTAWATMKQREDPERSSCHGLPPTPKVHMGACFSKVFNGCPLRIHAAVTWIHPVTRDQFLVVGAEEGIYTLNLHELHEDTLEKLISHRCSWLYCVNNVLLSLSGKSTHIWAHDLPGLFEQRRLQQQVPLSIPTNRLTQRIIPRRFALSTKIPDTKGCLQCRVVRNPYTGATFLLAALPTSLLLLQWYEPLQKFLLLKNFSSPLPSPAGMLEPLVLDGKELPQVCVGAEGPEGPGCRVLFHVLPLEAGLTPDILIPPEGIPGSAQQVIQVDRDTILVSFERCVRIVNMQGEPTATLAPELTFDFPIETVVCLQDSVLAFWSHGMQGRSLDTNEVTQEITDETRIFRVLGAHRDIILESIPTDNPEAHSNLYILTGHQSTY

Take `Clc1cc(NC2CCCCC2)nc(-c2c[nH]c3ncccc23)n1`: the Ki was 1580 nM (active) in experiment [1]; > 2000 nM (inactive) in [2]; 1000 nM (active) in experiment [3]; 2510 nM (active) in experiment [4]; 1260 nM (active) in experiment [5]; > 3980 nM (inactive) in experiment [6]. In addition, the Ki in experiment [7] was 2510 nM (active); in [8], 501 nM (active); in experiment [9], 251 nM (active); in experiment [10], 631 nM (active); in experiment [11], 501 nM (active); in experiment [12], > 3160 nM (inactive). The Ki in experiment [13] is 1000 nM (active); in experiment [14], > 3160 nM (inactive); in experiment [15], 158 nM (active); in experiment [16], 2510 nM (active); in experiment [17], 3160 nM (active); on SRSF protein kinase 1 it was > 7940 nM (inactive). Moreover, the Ki in experiment [18] was 398 nM (active).
For `Cc1ccc(/C=C2/C(=O)c3ccc(C(=O)O)cc3C2=O)o1`, the IC50 in [19] was > 122000 nM (inactive). Besides, the EC50 in [20] was 63600 nM (active).
